Among the data in patent publication US20230312482A1, “SOS1 INHIBITORS” (Mirati Therapeutics, Inc., priority 2020, published 2023) are Ki and IC50 values, retold here.

The target of experiment [1] is T1, recombinant human SOS1 polypeptide (amino acids 560-1049) (Homo sapiens, UniProt Q07889).
T1 construct: corresponding to amino acids 560-1049, expressed in E. Coli; His (N); TEV site (N); made in house; host or cells: E. coli
T1 sequence (Q07889 560-1049): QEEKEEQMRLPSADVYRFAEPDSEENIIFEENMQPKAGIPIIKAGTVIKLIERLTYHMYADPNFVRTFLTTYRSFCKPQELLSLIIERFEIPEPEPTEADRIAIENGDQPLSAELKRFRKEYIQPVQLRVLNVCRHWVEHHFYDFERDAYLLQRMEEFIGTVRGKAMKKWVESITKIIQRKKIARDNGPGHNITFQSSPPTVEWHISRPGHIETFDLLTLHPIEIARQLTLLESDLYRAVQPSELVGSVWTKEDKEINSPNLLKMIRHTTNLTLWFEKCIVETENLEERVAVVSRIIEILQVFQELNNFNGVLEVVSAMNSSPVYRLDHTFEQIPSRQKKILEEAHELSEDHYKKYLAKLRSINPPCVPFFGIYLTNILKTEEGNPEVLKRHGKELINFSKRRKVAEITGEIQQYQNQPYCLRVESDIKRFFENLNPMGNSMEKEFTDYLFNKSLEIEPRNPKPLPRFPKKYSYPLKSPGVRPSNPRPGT
In words: HTRF displacement assay, binding to SOS1. To be noted: HTRF displacement of Cy5 labelled tracer, 1-hour incubation, Morrison equation.
Description: The ability of a compound of Formula (I) to bind to SOS1 was measured using a HTRF displacement assay. […] The HTRF ratio was calculated using the formula: [emission ⅟emission 2]*10000.
Background signals were calculated from well with a 10 µM inhibitor, known to inhibit 100% at that concentration. The background subtracted signals were converted to % binding relative to DMSO controls. Data were analyzed using XLFIT software (IDBS) using a Morrison equation for competitive binding and Ki’s were generated for compound of Formula (I).

Experiment [2] concerns pERK in MKN1 cells or H358. In words: pERK inhibition in MKN1 or H358 cells (In-Cell Western). The class given is cell-based. The following applies: GAPDH normalized, 1 hour with compound, MKN1 or H358 cells (not specified which). How it is done:
This Example illustrates that exemplary compounds of the present invention prevent KRas-mediated GTP nucleotide exchange mediated by SOS1 to inhibit KRas activity thereby inhibiting the generation of the downstream effector pERK.
(§1) MKN1 cells (15,000/w) or H358 (30,000/w) were seeded in a black clear flat bottom 96-well cell culture plate (Corning, #3904) and incubated at 37° C. overnight. Assay day 1, cells were dosed with compounds of Formula (I) with a […] starting concentration and serially diluted 3x for a total of 9 concentrations. The cells were incubated for 1 hour with the compounds solubilized in DMSO at 37° C. Cells were immediately fixed by adding 50 µL of 4% formaldehyde to all wells in a fume hood and the plates were incubated for 20 minutes at room temperature. The formaldehyde was discarded from the plates and 150 µL of ice-cold methanol was added to permeabilize the cells for 10 minutes at -20° C. The methanol was discarded from each of the plates and any liquid remaining in the plate by tapping the plate against paper towels. Cells were then blocked with 150 µL of Odyssey blocking buffer (LI-COR Biosciences #927-50010) using 0.05% Tween for 1 hour at room temperature on a shaker. The blocking buffer was discarded and 50 µL of primary antibodies pERK (cell signaling Technology #9101L; Rabbit, 1:500) and GapDH (Millipore #MAB34; Mouse, 1:5000) diluted in Odyssey blocking buffer was added. The plates were incubated overnight at 4° C. on a shaker.
On Assay day 2, the primary antibody solution was removed. Each plate was washed 3x times with 150 µL of 1x PBST (PBS + 0.1 % Tween 20) and incubated with 50 µL of secondary antibodies: Anti-Rabbit (LI-COR Biosciences #926-32211) and Anti-Mouse (LI-COR Biosciences #68070) at 1:800 dilution in Odyssey blocking buffer with Tween at room temperature on a shaker for 2 hours (protected from light). The secondary antibody solution as removed and each plate was washed with PBST 3x times. Any liquid remaining was discarded and the plate was imaged using the Licor Odyssey machine according to the manufacturer’s instruction, using a set focus length at 3 mm and both 800 nm and 700 nm filters. The GAPDH normalized scan values for each well were divided by the average of vehicle wells to get the % of pERK inhibition. The IC50 values were then calculated with the Graph pad Prism software.

The test system of experiment [3] is pERK in NCI-H1435 cells. In words: pERK inhibition in NF-1 mutant cell line NCI-H1435. Format: cell-based. To be noted: NCI-H1435 cells (NF-1 mutation), 1 hour with compound.
Excerpt: This Example illustrates that exemplary compounds of the present invention prevent increased KRas-mediated GTP nucleotide exchange mediated by SOS1 in NF-1 mutant cell lines to inhibit KRas activity thereby inhibiting the generation of the downstream effector pERK.
as §1, with “A cell line harboring activating mutation in NF-1 gene, NCI-H1435 (ATCC CRL-5870) and a cell line harboring activating mutation in NF-2 gene, NCI-H2052 (ATCC CRL-5915) were employed in these studies. NCI-H1435 and NCI-2052” for “MKN1”, “(15,000/w)” for “(15,000/w) or H358 (30,000/w)”
On Assay day 2, the primary antibody solution was removed. […] The IC50 values were then calculated with the Graph pad Prism software.

Experiment [4] concerns pERK in NCI-H2052 cells. Briefly: pERK inhibition in NF-2 mutant cell line NCI-H2052. The following applies: Homo sapiens, NCI-H2052 cells (NF-2 mutation), 1 hour with compound. Format: cell-based.

As a reminder, the Ki is a measure of affinity in units of concentration, obtained from inhibition or displacement. For orientation: IC50 means the concentration that inhibits the measured activity by half. For `Cc1c([C@@H](C)Nc2n[nH]c(=O)c3ccc(N4CCOCC4)cc23)cccc1C(F)(F)F` [Example 1-1], the Ki in experiment [1] turned out to be 60 nM. Also, the IC50 in experiment [2] was 1320 nM; in experiment [3], 1090 nM; in experiment [4] it was > 10000 nM.

Turning to `CNCc1ccccc1-c1csc([C@@H](C)Nc2n[nH]c(=O)c3ccc(N4CCOCC4)cc23)c1` [Example 1-2], in experiment [1], the Ki came out at 10 nM. For the same molecule, the IC50 in experiment [2] was 202 nM; in experiment [3] it was 311 nM; in experiment [4], 752 nM.

Regarding `CNCc1ccccc1-c1csc([C@@H](C)Nc2nn(C)c(=O)c3ccc(N4CCOCC4)cc23)c1` [Example 1-3, (R)methyl-4-((1-(4-(2-((methylamino)methyl)phenyl)thiophenyl)ethyl)amino)-6-morpholinophthalazin-1 (2H)-one], the Ki in experiment [1] was found to be 14 nM. In addition, the IC50 in experiment [2] was 265 nM; in experiment [3] it was 522 nM; in experiment [4] it was 997 nM.

As for `Cc1c([C@@H](C)Nc2nn(C)c(=O)c3ccc(N4CCOCC4)cc23)cccc1C(F)(F)F` [Example 1-4], the Ki in experiment [1] is 3000 nM.

Consider `Cc1c([C@@H](C)Nc2nn(C)c(=O)c3ccc(N4CCNCC4)cc23)cccc1C(F)(F)F` [Example 1-5], for which the IC50 in experiment [2] came out at 881 nM.

On to `Cc1c([C@@H](C)Nc2n[nH]c(=O)c3ccc(N4CCNCC4)cc23)cccc1C(F)(F)F` [Example 1-6], for which the IC50 in experiment [2] came out at 114 nM.
